# Measurements: ChEMBL document CHEMBL1201862, “PubChem BioAssay data set” (2004)
# Activity calls are given as the source filed them.
# Legend:
# [1] = molecular target: T1, Sentrin-specific protease 6 (Homo sapiens, UniProt Q9GZR1); experiment: inhibition of human SENP6 catalytic domain – biochemical, luminescence, set 2, SAR follow-up (AID 588598); type: functional
# T1 sequence (Q9GZR1 whole entry): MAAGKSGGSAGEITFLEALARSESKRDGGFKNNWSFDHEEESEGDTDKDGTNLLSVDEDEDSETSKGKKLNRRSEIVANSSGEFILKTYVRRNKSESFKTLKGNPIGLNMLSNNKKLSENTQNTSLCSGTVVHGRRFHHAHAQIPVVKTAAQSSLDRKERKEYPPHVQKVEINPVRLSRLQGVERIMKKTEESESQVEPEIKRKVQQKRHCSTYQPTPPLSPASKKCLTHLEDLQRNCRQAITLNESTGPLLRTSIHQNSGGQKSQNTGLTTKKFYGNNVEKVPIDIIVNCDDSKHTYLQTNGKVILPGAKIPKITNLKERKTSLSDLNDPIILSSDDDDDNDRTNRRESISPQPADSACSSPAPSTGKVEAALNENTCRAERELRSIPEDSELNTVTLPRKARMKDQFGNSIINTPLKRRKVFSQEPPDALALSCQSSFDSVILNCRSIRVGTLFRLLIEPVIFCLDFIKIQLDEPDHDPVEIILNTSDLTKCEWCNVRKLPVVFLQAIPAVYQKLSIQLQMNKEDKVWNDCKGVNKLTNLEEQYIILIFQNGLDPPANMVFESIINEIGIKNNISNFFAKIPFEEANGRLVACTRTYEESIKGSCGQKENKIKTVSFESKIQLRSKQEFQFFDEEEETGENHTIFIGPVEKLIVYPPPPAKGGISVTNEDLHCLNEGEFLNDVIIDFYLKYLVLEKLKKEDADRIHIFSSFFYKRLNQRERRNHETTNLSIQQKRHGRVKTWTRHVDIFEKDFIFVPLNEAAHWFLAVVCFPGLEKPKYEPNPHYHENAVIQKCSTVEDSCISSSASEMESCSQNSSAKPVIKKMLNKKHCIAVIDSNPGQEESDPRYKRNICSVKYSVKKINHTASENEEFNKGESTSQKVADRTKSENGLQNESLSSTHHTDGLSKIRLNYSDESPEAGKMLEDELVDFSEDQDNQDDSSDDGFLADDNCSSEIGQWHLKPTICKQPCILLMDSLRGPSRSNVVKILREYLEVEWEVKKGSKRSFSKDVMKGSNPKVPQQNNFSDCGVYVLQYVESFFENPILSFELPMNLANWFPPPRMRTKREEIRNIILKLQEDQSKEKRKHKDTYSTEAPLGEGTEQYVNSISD
# [2] = molecular target: T2, Sentrin-specific protease 8 (Homo sapiens, UniProt Q96LD8); experiment: inhibition of sentrin protease 8 – biochemical, luminescence, set 2, SAR follow-up (AID 588601); type: functional
# T2 sequence (Q96LD8 whole entry): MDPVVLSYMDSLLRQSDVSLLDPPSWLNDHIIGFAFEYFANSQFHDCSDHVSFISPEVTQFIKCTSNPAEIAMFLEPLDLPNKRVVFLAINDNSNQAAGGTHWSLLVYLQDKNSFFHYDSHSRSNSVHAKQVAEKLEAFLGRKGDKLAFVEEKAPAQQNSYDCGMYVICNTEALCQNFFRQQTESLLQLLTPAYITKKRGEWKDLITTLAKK
# [3] = molecular target: T3, Sentrin-specific protease 7 (Homo sapiens, UniProt Q9BQF6); experiment: inhibition of human SENP7 cleavage activity – biochemical, luminescence, set 2, SAR follow-up (AID 588600); type: functional
# T3 sequence (Q9BQF6 whole entry): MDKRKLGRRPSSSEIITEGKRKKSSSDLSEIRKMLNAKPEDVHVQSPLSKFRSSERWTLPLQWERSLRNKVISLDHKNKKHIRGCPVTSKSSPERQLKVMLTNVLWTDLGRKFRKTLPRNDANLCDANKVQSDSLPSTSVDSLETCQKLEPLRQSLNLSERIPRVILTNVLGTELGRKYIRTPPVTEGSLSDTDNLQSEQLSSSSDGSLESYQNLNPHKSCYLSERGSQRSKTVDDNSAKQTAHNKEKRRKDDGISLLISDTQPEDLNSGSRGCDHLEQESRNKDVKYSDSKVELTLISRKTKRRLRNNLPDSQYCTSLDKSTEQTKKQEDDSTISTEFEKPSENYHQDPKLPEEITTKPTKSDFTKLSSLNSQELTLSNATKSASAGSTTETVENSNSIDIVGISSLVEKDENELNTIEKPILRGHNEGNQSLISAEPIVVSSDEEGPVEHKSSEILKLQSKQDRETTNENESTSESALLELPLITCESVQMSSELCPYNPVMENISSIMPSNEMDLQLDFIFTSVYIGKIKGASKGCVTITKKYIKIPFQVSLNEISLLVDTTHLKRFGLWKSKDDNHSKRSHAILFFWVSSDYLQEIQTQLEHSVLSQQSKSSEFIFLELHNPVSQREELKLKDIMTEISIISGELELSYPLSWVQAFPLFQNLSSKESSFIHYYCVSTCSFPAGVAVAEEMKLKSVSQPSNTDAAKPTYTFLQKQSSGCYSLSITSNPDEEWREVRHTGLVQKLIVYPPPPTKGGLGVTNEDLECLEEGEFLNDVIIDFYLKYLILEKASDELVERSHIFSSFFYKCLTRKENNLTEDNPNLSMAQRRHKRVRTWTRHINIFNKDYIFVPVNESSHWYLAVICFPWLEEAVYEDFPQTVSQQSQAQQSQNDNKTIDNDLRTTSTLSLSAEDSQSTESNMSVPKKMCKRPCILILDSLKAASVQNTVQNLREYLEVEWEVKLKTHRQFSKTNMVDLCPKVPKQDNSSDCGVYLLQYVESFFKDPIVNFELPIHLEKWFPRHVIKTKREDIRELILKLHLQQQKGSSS
# [4] = molecular target: T4, Caspase-3 (Homo sapiens, UniProt P42574); experiment: inhibition of recombinant caspase-3 activity – biochemical, luminescence, set 2, selectivity assay for SENP protease inhibitor project, SAR follow-up (AID 588599); type: functional
# T4 sequence (P42574 whole entry): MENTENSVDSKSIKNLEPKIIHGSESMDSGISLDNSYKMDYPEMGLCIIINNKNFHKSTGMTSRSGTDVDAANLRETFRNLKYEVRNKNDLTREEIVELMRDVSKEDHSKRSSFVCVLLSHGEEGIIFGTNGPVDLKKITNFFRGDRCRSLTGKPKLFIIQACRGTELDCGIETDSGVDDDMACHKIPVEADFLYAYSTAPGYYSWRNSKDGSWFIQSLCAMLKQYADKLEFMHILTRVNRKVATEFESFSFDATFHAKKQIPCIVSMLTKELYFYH
# [5] = test system: HEK293; experiment: membrane integrity loss in HEK cells – cell-based, fluorescence, cytotoxicity control for IDE activator project, dose response (AID 588440); type: functional; conditions: Homo sapiens;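 further: cytotoxicity by LDH release measuring loss of membrane integrity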
# [6] = molecular target: T5, Mannose-6-phosphate isomerase (Homo sapiens, UniProt P34949); experiment: MPI inhibition at elevated mannose 6-phosphate – biochemical, fluorescence intensity, high mannose 6-phosphate, primary screen (AID 1220)
# T5 sequence (P34949 whole entry): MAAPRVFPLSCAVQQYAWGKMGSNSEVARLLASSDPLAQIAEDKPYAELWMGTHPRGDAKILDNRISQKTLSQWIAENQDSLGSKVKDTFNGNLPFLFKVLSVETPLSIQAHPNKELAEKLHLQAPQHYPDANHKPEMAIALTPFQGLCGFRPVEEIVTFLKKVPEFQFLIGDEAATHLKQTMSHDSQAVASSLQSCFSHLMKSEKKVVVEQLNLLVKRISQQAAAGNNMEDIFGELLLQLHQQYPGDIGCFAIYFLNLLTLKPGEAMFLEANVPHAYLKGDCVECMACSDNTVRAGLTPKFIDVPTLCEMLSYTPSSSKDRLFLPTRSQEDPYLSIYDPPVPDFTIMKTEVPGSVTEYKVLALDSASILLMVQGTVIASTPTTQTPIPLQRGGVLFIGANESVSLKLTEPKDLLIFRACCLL
# [7] = molecular target: T6, Insulin-degrading enzyme (Homo sapiens, UniProt P14735); experiment: cellular IDE activation of Abeta substrate cleavage – fluorescence polarization, HEK cells, dose response (AID 588439); type: functional, cell-based
# T6 sequence (P14735 whole entry): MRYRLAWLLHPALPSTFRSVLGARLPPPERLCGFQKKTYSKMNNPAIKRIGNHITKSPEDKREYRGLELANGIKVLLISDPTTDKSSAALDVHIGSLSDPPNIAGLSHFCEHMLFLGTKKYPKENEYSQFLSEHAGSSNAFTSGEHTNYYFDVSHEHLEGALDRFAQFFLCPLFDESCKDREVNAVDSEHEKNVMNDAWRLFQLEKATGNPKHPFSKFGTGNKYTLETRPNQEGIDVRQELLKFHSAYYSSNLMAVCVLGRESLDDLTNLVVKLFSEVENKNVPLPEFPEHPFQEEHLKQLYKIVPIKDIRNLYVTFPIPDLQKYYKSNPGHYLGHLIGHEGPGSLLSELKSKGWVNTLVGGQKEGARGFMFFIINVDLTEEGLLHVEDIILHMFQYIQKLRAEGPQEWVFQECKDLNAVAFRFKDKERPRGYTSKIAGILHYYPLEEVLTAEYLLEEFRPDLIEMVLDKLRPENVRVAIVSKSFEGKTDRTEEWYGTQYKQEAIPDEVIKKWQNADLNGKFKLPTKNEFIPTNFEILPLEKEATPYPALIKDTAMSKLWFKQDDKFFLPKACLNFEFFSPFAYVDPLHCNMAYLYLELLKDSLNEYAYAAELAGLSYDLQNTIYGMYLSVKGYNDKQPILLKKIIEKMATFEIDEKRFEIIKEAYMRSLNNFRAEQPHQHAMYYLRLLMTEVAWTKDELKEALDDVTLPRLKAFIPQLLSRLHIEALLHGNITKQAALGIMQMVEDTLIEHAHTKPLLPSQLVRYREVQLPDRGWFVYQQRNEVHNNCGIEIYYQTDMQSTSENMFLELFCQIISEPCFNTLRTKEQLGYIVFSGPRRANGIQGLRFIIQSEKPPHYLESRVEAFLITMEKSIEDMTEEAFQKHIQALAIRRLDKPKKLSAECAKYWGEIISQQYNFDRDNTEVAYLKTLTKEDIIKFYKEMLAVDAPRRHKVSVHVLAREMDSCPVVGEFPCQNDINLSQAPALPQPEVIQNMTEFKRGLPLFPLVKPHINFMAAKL
# [8] = test system: HEK293; experiment: optical interference in Abeta FP readout, dose response, artefact control for IDE activator project, biochemical, fluorescence polarization (AID 588442); type: functional, cell-based; conditions: Homo sapiens
# [9] = molecular target: T6, Insulin-degrading enzyme; experiment: recombinant IDE activation, cell-free – biochemical, fluorescence polarization, counter-screen for IDE activator project, dose response (AID 588681)
# [10] = NIH3T3 cell viability loss – ATP luminescence, mouse fibroblasts, counter-screen, dose response (AID 2010); type: functional, cell-based;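 further: cells exposed to compound for about 90 hours before reading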
# [11] = molecular target: Latent membrane protein 1 (Human herpesvirus 4 (strain B95-8), UniProt P03230); experiment: LMP1 TES1 pathway selectivity over dsRED control – imaging, HEK293T, dual-color eGFP/dsRED, cherry-picks, selectivity assay for LMP1 NF-kB inhibitor project, dose response (AID 588398); type: functional, cell-based
# [12] = microbe, parasite or virus in culture; type: functional; conditions: Mycobacterium tuberculosis
# [13] = test system: HEK293; experiment: EBV LMP1 TES2 canonical NF-kB signalling blockers – cell-based, HEK293, luciferase, cherry-pick, dose response (AID 588343); type: functional; conditions: Homo sapiens
# [14] = Trypanosoma cruzi growth suppression in host cells – NIH3T3 host cells, beta-gal luminescence, confirmation (AID 2044); type: functional, cell-based;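 further: intracellular parasites grown in NIH/3T3 mouse fibroblasts as host cells; luminescent beta-galactosidase reporter signal from transgenic T. cruzi replicating inside host cells; inhibitors lower the luminescence signal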
# [15] = test system: INS1; experiment: INS-1E survival protection against cytokine death – cell-based, luminescence, retest, dose response (AID 449756); type: functional; conditions: Rattus norvegicus;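 further: cell death triggered by IL-1 beta plus TNF-alpha plus IFN-gamma mixture; protective hits raise ATP signal compared with cytokine alone wells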
# [16] = test system: INS1; experiment: suppression of NO production in INS-1E cells – cell-based, Griess absorbance, dry powder, set 2, dose response (AID 488868); type: functional; conditions: Rattus norvegicus
# [17] = suppression of NO production in INS-1E cells – cell-based, Griess absorbance, dry powder, set 3, dose response (AID 488870); type: functional; conditions: Rattus norvegicus
# [18] = test system: INS1; experiment: beta-cell survival under cytokine stress – INS-1E, ATP luminescence, dry powder, dose response (AID 488844); type: functional, cell-based; conditions: Rattus norvegicus
# [19] = molecular target: T3, Sentrin-specific protease 7; experiment: inhibition of human SENP7 cleavage activity – biochemical, luminescence, SAR follow-up (AID 504497); type: functional
# [20] = molecular target: T4, Caspase-3; experiment: SAR Analysis of small molecule inhibitors of Sentrin-specific proteases (SENPs) using a Caspase-3 Selectivity assay. [Related pubchem assays (depositor defined):AID2540, AID2599, AID434973, AID489001]; type: functional
# [21] = molecular target: T2, Sentrin-specific protease 8; experiment: inhibition of human SENP8 cleavage activity – biochemical, luminescence, SAR follow-up (AID 504501); type: functional
# [22] = molecular target: T1, Sentrin-specific protease 6; experiment: SAR Analysis of small molecule inhibitors of Sentrin-specific protease 6 (SENP6) using a Luminescent assay. [Related pubchem assays (depositor defined):AID2582, AID2599]; type: functional
# Chain of Latent membrane protein 1 (P03230 whole entry): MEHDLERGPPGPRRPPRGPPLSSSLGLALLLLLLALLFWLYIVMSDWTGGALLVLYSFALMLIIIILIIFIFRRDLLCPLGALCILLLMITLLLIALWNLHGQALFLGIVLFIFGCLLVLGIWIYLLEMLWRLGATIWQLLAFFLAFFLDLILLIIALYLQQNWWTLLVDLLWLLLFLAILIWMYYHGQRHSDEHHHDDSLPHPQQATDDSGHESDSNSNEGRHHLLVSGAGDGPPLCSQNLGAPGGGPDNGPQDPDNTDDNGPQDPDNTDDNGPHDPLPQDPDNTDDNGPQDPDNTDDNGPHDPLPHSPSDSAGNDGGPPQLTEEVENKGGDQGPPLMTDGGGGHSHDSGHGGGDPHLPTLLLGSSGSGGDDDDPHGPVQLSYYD
smiles,measurement,setting,value
Cc1ccc(S(=O)(=O)NCCC(=O)N/N=C\c2c[nH]c3ccccc23)cc1,IC50,[1],> 99 µM (inactive)
same,IC50,[2],> 99 µM (inactive)
same,IC50,[3],> 99 µM (inactive)
same,IC50,[4],> 99 µM (inactive)
O=c1oc2cc(O)ccc2cc1-c1nc2c(s1)CCc1ccccc1-2,IC50,[5],> 89.2 µM (inactive)
same,IC50,[6],> 50 µM (not active)
same,EC50,[7],> 54.7 µM (inactive)
same,EC50,[8],4.6 µM (active)
same,EC50,[9],> 54.7 µM (inactive)
Clc1ccc(SCc2cc(N3CCOCC3)nc(-c3ccccn3)n2)cc1,EC50,[10],> 60 µM (not active)
same,AC50,[11],10.5 µM (active)
same,CC50,[12],19.5 µM (active)
same,AC50,[13],12.1 µM (active)
same,EC50,[14],1.51 µM (active)
same,AC50,[15],2.57 µM (active)
C[C@@H]1CN([C@H](C)CO)C(=O)c2cccc(NC(=O)Nc3cccc4ccccc34)c2O[C@H]1CN(C)S(=O)(=O)c1ccc(Cl)cc1,AC50,[16],48.5 µM (active)
same,AC50,[17],112 µM (active)
same,AC50,[18],187 µM (active)
COc1cc(Cc2nccc3cc(OC)c(OC)cc23)c(C(=O)c2ccccc2)cc1OC,IC50,[19],> 99 µM (inactive)
same,IC50,[20],71.6 µM (active)
same,IC50,[21],> 99 µM (inactive)
same,IC50,[22],50.9 µM (active)
